Tests used:
healthy adults = assay: Phase 1 first-in-human study: safety and tolerability (adverse events), SAD and MAD cohorts; conditions: in vivo
From the text: Study Overview and Ethics. The study used a randomized, placebo-controlled, single-ascending dose (SAD) and multiple-ascending dose (MAD) design (FIG. 2). […] Dose escalation was to be stopped when this range was achieved, or when a non-tolerated dose was identified, if earlier.
Participants and Treatments. To be eligible for this study, participants were to be healthy adults aged 18 to 55 years, with body mass index of 18.0 to 32.0 kg/m^2, normal electrocardiogram (ECG) and clinical laboratory values, or only minor abnormalities that were deemed not clinically significant. Participants also had to have normal cardiac structure and function, with LVEF≥60% for the first 4 SAD cohorts, ≥65% for subsequent SAD cohorts, all MAD cohorts, and the food-effect cohort, and >55% for the CYP2D6-PM cohort. […]
Safety and tolerability. Safety was assessed by the incidence of adverse events (AEs) and by incidence of reduced LVEF. […]
For safety monitoring, participants in all cohorts had periodic echocardiograms, which were assessed by a cardiologist. […] In addition, participants in all cohorts were monitored with continuous 12-lead ECG recording using Holter monitors. […] In the SAD, MAD, and CYP2D6-PM cohorts, cardiodynamic ECGs (triplicate 10-second, 12-lead ECG recordings) were obtained prior to the corresponding PK blood and ECG intervals quantitated by qualified readers.

[1] = tested on: patients with symptomatic oHCM; assay: Open-label extension trial in oHCM: LVOT-G, LVEF, NYHA class, KCCQ; format: in vivo, human
From the text: An open-label extension clinical trial of CK-274 in patients with symptomatic oHCM was initiated.
Patients who completed the study as described in Example 2 and had not developed atrial fibrillation were eligible to enroll in the study. Echo-guided dose titration based on site reads was managed by the investigator and could occur at any time during the trial, as described below.
Each patient received Dose 1 of CK-274 once daily for 2 weeks. […] Patients were up-titrated to Dose 2 if either of the following conditions were met on echocardiography: (1) resting LVOT-G≥30 mmHg and the biplane LVEF≥50%; or (2) resting LVOT-G<30 mmHg, post-Valsalva LVOT-G≥50 mmHg, and the biplane LVEF≥50%. Otherwise, the patient remained on 5 mg of CK-274. If LVEF was […], treatment was discontinued. If LVEF was <40%, treatment is interrupted.
Ambulatory cardiac monitoring is performed on weeks 48, 96, 144, 192 and 240. Cardiac magnetic resonance is monitored at weeks 48, 144 and 240. (See FIG. 26).
Change in KCCQ scores from baseline, including OSS=overall summary score, CSS=clinical summary score, TSS=total symptom score, PLS=physical limitation score, SLS=social limitation score, QoL=quality of life, were determined. Patients were categorized with worsened (≤−5 points), unchanged (−5 to <5 points), small improvement (5 to <10 points), moderate to large improvement (10 to <20 points), and large to very large improvement (≥20 points) relative to baseline.

CCc1nc(-c2ccc3c(c2)CC[C@H]3NC(=O)c2cnn(C)c2)no1 [aficamten, (R)—N-(5-(5-ethyl-1,2,4-oxadiazol-3-yl)-2,3-dihydro-1H-inden-1-yl)-1-methyl-1H-pyrazole-4-carboxamide]
Time to resolution of AEs of decreased ejection fraction <45% (healthy adults; human): 2.5 to 4.6 h
Post-dose LVEF of 1 participant with LVEF <50% (healthy adults): 46.2%
Participants with very large clinical improvements (≥20 points) in KCCQ ([1]; Week 24): 40.0%
LVOT gradients (resting and Valsalva) over time ([1]; Weeks 2-24, site reads): significant and sustained reduction
Patients with worsening in NYHA class from baseline ([1]; open-label extension): No patients
LVEF over time ([1]; through Week 24): minimal and stable reductions

Reference: US20250177357A1, “METHODS FOR TREATING HYPERTROPHIC CARDIOMYOPATHY” (priority 2021, published 2025)
